Common to all, as to assay: AK assay 384-well format, Prestwick library screening
One assay deals with E. faecium. Format: cell-based, Enterococcus faecium. To be noted: for fold induction at 50 µM: Enterococcus faecium, 3 h.
The test system of the next assay is E. coli. Format: cell-based, Escherichia coli. The following applies: for fold induction at 50 µM: Escherichia coli, 3 h.
The test system of the next assay is K. pneumoniae. Format: cell-based, Klebsiella pneumoniae. The following applies: for fold induction at 50 µM: Klebsiella pneumoniae, 3 h.
The subject of assay [1] is S. aureus strain USA300-0114. Format: cell-based, Staphylococcus aureus. To be noted: for fold induction at 50 µM: Staphylococcus aureus, USA300, 3 h.
In assay [2] the test system is A. baumannii strain 98-37-09. Format: cell-based, Acinetobacter baumannii. The following applies: for fold induction at 50 µM: Acinetobacter baumannii, 983709, 3 h.
For another assay, the system named is P. aeruginosa. Type of assay: cell-based, Pseudomonas aeruginosa. The following applies: for fold induction at 50 µM: Pseudomonas aeruginosa, 3 h.
Setting [3] is: planktonic E. coli, 50 μM final drug concentration, 384-well, […].

Counter-ions that a name gives are not always drawn. Like-named read-outs stand apart in the source and are kept apart here.

Take `CCOC(=O)c1cncn1[C@H](C)c1ccccc1` [Etomidate]: the fold induction at 50 µM in the assay on E. faecium (50 μM final drug concentration, […], read-out: AK-based Prestwick Library Screening Results, E. faecium (fold increase in extracellular AK activity)) was determined as 0.9; in the assay on E. coli (50 μM final drug concentration, […], read-out: AK-based Prestwick Library Screening Results, E. coli (fold increase in extracellular AK activity)) it was 0.5; with K. pneumoniae (50 μM final drug concentration, […], read-out: AK-based Prestwick Library Screening Results, K. pneumoniae (fold increase in extracellular AK activity)), 0.4; in assay [1] (50 μM final drug concentration, […], read-out: AK-based Prestwick Library Screening Results, S. aureus (fold increase in extracellular AK activity)), 0.3; in assay [2] (50 μM final drug concentration, […], read-out: AK-based Prestwick Library Screening Results, A. baumannii (fold increase in extracellular AK activity)), 0.3; in the assay on P. aeruginosa (50 μM final drug concentration, […], read-out: AK-based Prestwick Library Screening Results, P. aeruginosa (fold increase in extracellular AK activity)), 0.4.
As for `CN(C)CCCN1c2ccccc2CCc2ccccc21` [Imipramine hydrochloride], the fold induction at 50 µM came to 0.9 with E. faecium (planktonic E. faecium, 50 μM final drug concentration, 384-well, cutoff for positive-scoring molecules 3-fold increase, read-out: AK-based Prestwick Library Screening Results: E. faecium (increase in extracellular AK activity)); 1.2 in the assay on E. coli (planktonic E. coli, 50 μM final drug concentration, 384-well, cutoff for positive-scoring molecules 3-fold increase, read-out: AK-based Prestwick Library Screening Results: E. coli (increase in extracellular AK activity)); 1 in the assay on K. pneumoniae (planktonic K. pneumoniae, 50 μM final drug concentration, 384-well, cutoff for positive-scoring molecules 3-fold increase, read-out: AK-based Prestwick Library Screening Results: K. pneumoniae (increase in extracellular AK activity)); 1.2 in assay [1] (planktonic S. aureus, 50 μM final drug concentration, 384-well, cutoff for positive-scoring molecules 3-fold increase, read-out: AK-based Prestwick Library Screening Results: S. aureus (increase in extracellular AK activity)); 1.3 in assay [2] (planktonic A. baumannii, 50 μM final drug concentration, 384-well, cutoff for positive-scoring molecules 3-fold increase, read-out: AK-based Prestwick Library Screening Results: A. baumannii (increase in extracellular AK activity)); 1.1 in the assay with P. aeruginosa (planktonic P. aeruginosa, 50 μM final drug concentration, 384-well, cutoff for positive-scoring molecules 3-fold increase, read-out: AK-based Prestwick Library Screening Results: P. aeruginosa (increase in extracellular AK activity)).
Consider `CN1[C@@H]2CC[C@H]1C[C@@H](OC(=O)C(CO)c1ccccc1)C2` (stereo partly drawn) [Atropine sulfate monohydrate], for which the fold induction at 50 µM was 0.8 with E. faecium (planktonic E. faecium, 50 μM final drug concentration, […], read-out: AK-based Prestwick Library Screening Results, E. faecium (increase in extracellular AK activity)); 0.6 with E. coli (planktonic E. coli, 50 μM final drug concentration, […], read-out: AK-based Prestwick Library Screening Results, E. coli (increase in extracellular AK activity)); 0.5 in the assay with K. pneumoniae (planktonic K. pneumoniae, 50 μM final drug concentration, […], read-out: AK-based Prestwick Library Screening Results, K. pneumoniae (increase in extracellular AK activity)); 0.5 in assay [1] (planktonic S. aureus, 50 μM final drug concentration, […], read-out: AK-based Prestwick Library Screening Results, S. aureus (increase in extracellular AK activity)); 0.5 in assay [2] (planktonic A. baumannii, 50 μM final drug concentration, […], read-out: AK-based Prestwick Library Screening Results, A. baumannii (increase in extracellular AK activity)); 0.5 in the assay with P. aeruginosa (planktonic P. aeruginosa, 50 μM final drug concentration, […], read-out: AK-based Prestwick Library Screening Results, P. aeruginosa (increase in extracellular AK activity)).
Regarding `CN1[C@@H]2CC[C@H]1C[C@@H](OC(=O)[C@H](CO)c1ccccc1)C2` [Hyoscyamine (L)], the “AK-based Prestwick Library Screening Results: E. faecium (increase in extracellular AK activity)” value in the assay with E. faecium (planktonic E. faecium, 50 μM final drug concentration, 384-well, […]) was determined as 1.0. Moreover, the “AK-based Prestwick Library Screening Results: E. coli (increase in extracellular AK activity)” value with E. coli (setting [3]) was 1.3. Also, in the assay on K. pneumoniae (planktonic K. pneumoniae, 50 μM final drug concentration, 384-well, […]), the “AK-based Prestwick Library Screening Results: K. pneumoniae (increase in extracellular AK activity)” value is 1.2. The “AK-based Prestwick Library Screening Results: S. aureus (increase in extracellular AK activity)” value in assay [1] (planktonic S. aureus, 50 μM final drug concentration, 384-well, […]) was determined as 1.2. In addition, in assay [2] (planktonic A. baumannii, 50 μM final drug concentration, 384-well, […]), the “AK-based Prestwick Library Screening Results: A. baumannii (increase in extracellular AK activity)” value was found to be 1.4. Besides, the “AK-based Prestwick Library Screening Results: P. aeruginosa (increase in extracellular AK activity)” value in the assay with P. aeruginosa (planktonic P. aeruginosa, 50 μM final drug concentration, 384-well, […]) amounted to 1.2.
Turning to `Clc1ccccc1CN1CCc2sccc2C1` [Ticlopidine hydrochloride], the fold induction at 50 µM in the assay on E. faecium (50 μM final drug concentration, 384-well format, cutoff for positive-scoring molecules 3-fold increase, read-out: AK-based Prestwick Library Screening Results, E. faecium (increase in extracellular AK activity)) was found to be 1; in the assay on E. coli (50 μM final drug concentration, 384-well format, cutoff for positive-scoring molecules 3-fold increase, read-out: AK-based Prestwick Library Screening Results, E. coli (increase in extracellular AK activity)), 1.3; in the assay on K. pneumoniae (50 μM final drug concentration, 384-well format, cutoff for positive-scoring molecules 3-fold increase, read-out: AK-based Prestwick Library Screening Results, K. pneumoniae (increase in extracellular AK activity)), 1; in assay [1] (50 μM final drug concentration, 384-well format, cutoff for positive-scoring molecules 3-fold increase, read-out: AK-based Prestwick Library Screening Results, S. aureus (increase in extracellular AK activity)), 0.8; in assay [2] (50 μM final drug concentration, 384-well format, cutoff for positive-scoring molecules 3-fold increase, read-out: AK-based Prestwick Library Screening Results, A. baumannii (increase in extracellular AK activity)) it was 1.1; in the assay with P. aeruginosa (50 μM final drug concentration, 384-well format, cutoff for positive-scoring molecules 3-fold increase, read-out: AK-based Prestwick Library Screening Results, P. aeruginosa (increase in extracellular AK activity)) it was 1.1.
For `C=C[C@H]1C[N@@]2CC[C@H]1C[C@@H]2[C@@H](O)c1ccnc2ccc(OC)cc12` [Quinidine hydrochloride monohydrate], the fold induction at 50 µM in the assay with E. faecium (50 μM final drug concentration, 384-well format, […], read-out: AK-based Prestwick Library Screening Results, E. faecium (increase in extracellular AK activity)) was 1; with E. coli (50 μM final drug concentration, 384-well format, […], read-out: AK-based Prestwick Library Screening Results, E. coli (increase in extracellular AK activity)) it was 1; in the assay on K. pneumoniae (50 μM final drug concentration, 384-well format, […], read-out: AK-based Prestwick Library Screening Results, K. pneumoniae (increase in extracellular AK activity)), 0.8; in assay [1] (50 μM final drug concentration, 384-well format, […], read-out: AK-based Prestwick Library Screening Results, S. aureus (increase in extracellular AK activity)), 0.9; in assay [2] (50 μM final drug concentration, 384-well format, […], read-out: AK-based Prestwick Library Screening Results, A. baumannii (increase in extracellular AK activity)), 0.9; with P. aeruginosa (50 μM final drug concentration, 384-well format, […], read-out: AK-based Prestwick Library Screening Results, P. aeruginosa (increase in extracellular AK activity)) it was 0.9.
As for `COc1ccc(CCN(C)CCCC(C#N)(c2ccc(OC)c(OC)c2)C(C)C)cc1OC.Cl` (stereo not drawn) [Verapamyl hydrochloride], in the assay with E. faecium (planktonic E. faecium, 50 μM final drug concentration, 384-well, cutoff for positive-scoring molecules 3-fold increase), the “AK-based Prestwick Library Screening Results: E. faecium (increase in extracellular AK activity)” value was 0.9. For the same molecule, the “AK-based Prestwick Library Screening Results: E. coli (increase in extracellular AK activity)” value with E. coli (setting [3]) was 1.3. Moreover, the “AK-based Prestwick Library Screening Results: K. pneumoniae (increase in extracellular AK activity)” value with K. pneumoniae (planktonic K. pneumoniae, 50 μM final drug concentration, 384-well, cutoff for positive-scoring molecules 3-fold increase) is recorded as 0.9. Further, the “AK-based Prestwick Library Screening Results: S. aureus (increase in extracellular AK activity)” value in assay [1] (planktonic S. aureus, 50 μM final drug concentration, 384-well, cutoff for positive-scoring molecules 3-fold increase) worked out at 1.2. The “AK-based Prestwick Library Screening Results: A. baumannii (increase in extracellular AK activity)” value in assay [2] (planktonic A. baumannii, 50 μM final drug concentration, 384-well, cutoff for positive-scoring molecules 3-fold increase) is 1.5. The “AK-based Prestwick Library Screening Results: P. aeruginosa (increase in extracellular AK activity)” value in the assay on P. aeruginosa (planktonic P. aeruginosa, 50 μM final drug concentration, 384-well, cutoff for positive-scoring molecules 3-fold increase) amounted to 1.2.
For `COc1cc2nc(N3CCN(C(=O)c4ccco4)CC3)nc(N)c2cc1OC` [Prazosin hydrochloride], the fold induction at 50 µM with E. faecium (50 μM final drug concentration, cutoff for positive-scoring molecules 3-fold increase, read-out: AK-based Prestwick Library Screening Results, E. faecium (fold increase in extracellular AK activity)) was 1.1; in the assay on E. coli (50 μM final drug concentration, cutoff for positive-scoring molecules 3-fold increase, read-out: AK-based Prestwick Library Screening Results, E. coli (fold increase in extracellular AK activity)) it was 1.2; in the assay with K. pneumoniae (50 μM final drug concentration, cutoff for positive-scoring molecules 3-fold increase, read-out: AK-based Prestwick Library Screening Results, K. pneumoniae (fold increase in extracellular AK activity)), 0.9; in assay [1] (50 μM final drug concentration, cutoff for positive-scoring molecules 3-fold increase, read-out: AK-based Prestwick Library Screening Results, S. aureus (fold increase in extracellular AK activity)), 1.4; in assay [2] (50 μM final drug concentration, cutoff for positive-scoring molecules 3-fold increase, read-out: AK-based Prestwick Library Screening Results, A. baumannii (fold increase in extracellular AK activity)) it was 1.4; in the assay on P. aeruginosa (50 μM final drug concentration, cutoff for positive-scoring molecules 3-fold increase, read-out: AK-based Prestwick Library Screening Results, P. aeruginosa (fold increase in extracellular AK activity)), 1.1.
`O=C1CC[C@@]2(O)[C@H]3Cc4ccc(O)c5c4[C@@]2(CCN3CC2CC2)[C@H]1O5` [Naltrexone hydrochloride dihydrate]: the fold induction at 50 µM in the assay on E. faecium (read-out: AK-based Prestwick Library Screening Results, E. faecium (increase in extracellular AK activity)) was determined as 1; in the assay on E. coli (read-out: AK-based Prestwick Library Screening Results, E. coli (increase in extracellular AK activity)) it was 0.9; with K. pneumoniae (read-out: AK-based Prestwick Library Screening Results, K. pneumoniae (increase in extracellular AK activity)) it was 0.6; in assay [1] (read-out: AK-based Prestwick Library Screening Results, S. aureus (increase in extracellular AK activity)) it was 0.7; in assay [2] (read-out: AK-based Prestwick Library Screening Results, A. baumannii (increase in extracellular AK activity)), 0.9; in the assay with P. aeruginosa (read-out: AK-based Prestwick Library Screening Results, P. aeruginosa (increase in extracellular AK activity)), 0.8.

The values above are taken from patent publication US10004701B2, “Methods and compositions for treating infection” (UNIVERSITY OF ROCHESTER, priority 2012, dated 2018).
